Measurements published in publication PMC4786809, “Determination of cyanidin 3-glucoside in rat brain, liver and kidneys by UPLC/MS-MS and its application to a short-term pharmacokinetic study” (Scientific Reports, 2016).
Values joined by “and” are separate entries in the source; they are usually repeats but may differ in a detail not shown here. Identical values can stand only once.

Test: Kidney concentrations and tissue pharmacokinetics after intravenous C3G
Format: in vivo, Wistar rats
Text: Twenty-two male Wistar rats (Rattus Norvegicus, Harlan Italy S.r.l.), of same age (15 weeks), 293–390 g of body weight, were used. The rats were randomly divided into 5 groups, according to the time that elapsed after intravenous administration of the test compound, and one control group. Each time point was represented by four biological replicates. All animals were allowed to acclimate to the animal facility of the University of Trieste for at least 2 week before studies were initiated. The experimental design was vetted and approved by the bioethical committee of the University of Trieste (internal code 140PAS14), according to the provisions of the European Community Council Directive 2010/63/EU[39]. The methods were carried out in accordance with the approved guidelines. The animals (n = 22) were maintained in cages in a room at 23 ± 2 °C, 50–60% humidity with a 12-hour light-dark cycle. The night before the experiment, food was withdrawn from the cages but water was given ad libitum. On the day of the experiment, the rats were anesthetized with intra-peritoneal administration of tiletamine/zolazepam (1:1, 25 mg/kg body weight) and xylazine (10 mg/kg body weight). During anaesthesia (10 min in all cases), the heart and ventilation rate were monitored. The rats were placed on their backs, with the ventral side up and with the legs spread separately on a thermo-isolated support. The penis was extruded by sliding the prepuce downwards. The dorsal penis vein was then seen along both sides of the penis and exactly 10 min after anaesthesia 0.2 mL PBS without (control group) or with (treated group) 668 nmol cyanidin 3-glucoside (C3G) in PBS was injected using a 24-G hypodermic needle. Then the injection site was pressed with a swab for a few seconds, and the glans was encouraged to retract to prevent further bleeding. One min before sacrificing the rats, sodium heparin (0.1 ml, 500 IU) was injected again into the dorsal penis vein, exposed in the same way. […] Blood draining and excision of the organs were carried out according to the literature. In detail, blood was collected from the neck of rats hold upside down, immediately after their decapitation, which happened at the time points sharp. Exsanguination took 5 seconds; laparotomy and excision of the liver and the kidneys took 5 more seconds. The post-decapitation procedures were standardised. Urine was collected through the urinary bladder with a syringe before decapitation. Kidneys, liver and brain were washed with mQ water, immediately frozen in liquid nitrogen and stored at −80 °C.
Immediately after sampling, 5 mL of blood were transferred into ice-cold (−20 °C), deoxygenated aqueous 95% methanol in a ratio 1:9 (v/v). The urine was weighted and transferred into ice-cold, deoxygenated aqueous 95% methanol at a ratio of 1:9 (w/v). Frozen kidneys, liver and brain were grounded under cryogenic conditions (−196 °C) to 5 μm particles in a CryoMill (Retsch, Germany), using a single 25 mm i. d. steel ball (30 seconds, 25/sec frequency). The pulverized tissue was rapidly transferred (without thawing) into ice-cold, deoxygenated aqueous 95% methanol at a ratio of 1:9 (w/v). Cinnamic acid-d5, as internal standard, was dissolved in the aqueous methanol at concentration of 0.1 mg/L for the monitoring of the extraction protocol in biofluids and tissues.
All samples were extracted with an orbital shaker for 10 min at room temperature. The methanol extracts were then centrifuged for 5 min at 3600 rpm at 4 °C, decanted under a stream of nitrogen in 50 mL dark glass vessels and stored at −80 °C. Clean-up of extracted samples in methanol was performed by solid phase extraction (SPE), as previously described. Briefly, 5 mL of extracted samples were evaporated on a rotary evaporator and reconstituted in 10 mL of acidified water. Anthocyanins were extracted by solid-phase adsorption onto a hydrophobic matrix (Sep-Pak C18, 0.35 g, Waters, Milford, MA). […]

Amounts found in kidneys (range over sampling times) (0.25–20 min after i.v. 668 nmol C3G): 0.44 to 1.69 nmol/g
Mean concentration in kidneys (0.25 min after i.v. 668 nmol C3G, mean ± SEM n=4): 1.69 ± 0.47 nmol/g
Mean concentration in kidneys (2 min after i.v. 668 nmol C3G): 1.40 ± 0.16 nmol/g
Mean concentration in kidneys (5 min after i.v. 668 nmol C3G): 0.58 ± 0.08 nmol/g
Mean concentration in kidneys (15 min after i.v. 668 nmol C3G): 0.57 ± 0.17 nmol/g
Mean concentration in kidneys (20 min after i.v. 668 nmol C3G): 0.44 ± 0.04 nmol/g
MTTK (Mean Transit time in kidneys) (kidneys): 8.54 min
AUC0-t (kidneys, i.v. 668 nmol C3G): 14.3 nmol·min/g and 14.32 nmol·min/g
half-life (male, Wistar, rat, kidney, iv, 668 nmol, kidneys): 11.7 min
Structure (SMILES): OC[C@H]1O[C@@H](Oc2cc3c(O)cc(O)cc3[o+]c2-c2ccc(O)c(O)c2)[C@H](O)[C@@H](O)[C@@H]1O [C3G, Cyanidin-3-O-β-glucoside]
